Reference: patent publication US6428950B1, “Assay to identify compounds that alter apolipoprotein E expression” (Scios Inc., priority 1998, dated 2002)

Legend:
[1] = test system: BV-2 microglial cells; test: basal apoE production from BV-2 microglial cell cultures; assay type: cell-based, murine; conditions: no β-amyloid treatment, FIG. 5
Text: Microglial cell lines were used to evaluate changes in apoE expression. Microglial cell lines for use in the method of the invention include murine lines, e.g. BV-2 cell line (Blasi et al. J. Neuroimmunol. 27:229-237 (1990) and the N9 cell line (Corradin et al. Glia 7:255-262 (1993) or human lines such as those described in Janabi et al. Neurosci. Lett. 195:105-108 (1995). The microglial cell lines used were obtained from the investigators who isolated the lines. Astroglial continuous cell lines were also utilized in the assay, e.g. the human U373-MG line or the rodent lines C6 and DI TNC1. All of these astrocytic lines were obtained, from the American Tissue Culture Collection cell repository (Rockville, Md.).
To screen for inhibitors of apoE secretion or production using cultured brain cells, wells containing cultures were incubated in serum-free medium or medium containing reduced serum concentrations (1 to 0.1%) for various periods of time anywhere from 1-72 hours in the presence of the test compound. For some inhibitors, such as HMG CoA reductase and farnesylation inhibitors, pre-treatment of the cultures with the compound for 4-16 hours in serum-containing growth medium was used to maximize the effectiveness of the assay. Cultures were treated with β-amyloid to stimulate apoE levels in the test paradigm. […]

[2] = test system: murine mixed primary glia; test: basal apoE production from murine mixed primary glia cultures; assay type: cell-based; conditions: no β-amyloid treatment, FIG. 5
Text: Primary mixed glial cultures, purified primary astrocyte, and purified primary microglial cultures prepared from rodent or human brain tissue (generally fetal) were used in the test assay. A variety of preparation methods can be used to isolate primary glial cultures, both mixed and purified for astroglial or microglial cell types. See e.g. McCarthy and de Vellis, J. Cell Biol. 85:890-902 (1980); Levinson & McCarthy in Culturing Nerve Cells, MIT Press, Cambridge, Mass. at 309-336 (1991); Hu et al. J. Biol. Chem. 271:2543-2547 (1996); Stone et al. Exptl. Neurol. 143:313-318 (1997); Barger et al. Mol. Brain Res. 40:116-126 (1996); and Manthorpe et al. J. Neurocytol. 8:605-621 (1979). Also, primary glial cultures can be prepared which include neurons, such as in the procedure described by Messmer-Joudrier et al. Eur. J. Neurosci. 8: 2652-2661 (1996). For primary cell cultures, different brain regions were used to isolate the cells. Hippocampal, cortical, cerebellar or brain stem cultures were prepared. Primary and continuous cell lines were plated into wells of a multi-well plate at a subconfluent density for the assay. Typically, the cultures were used within 1-2 days of initial plating. […]

[3] = test system: organotypic hippocampal cultures; test: apoE release from organotypic hippocampal brain slice cultures; assay type: cell-based, rat; conditions: for inhibition of apoE: organotypic hippocampal brain slice cultures, FIG. 7
Procedure: Eight day old neonatal rat or mouse pups were quickly decapitated with scissors, serrated on one edge, in an aseptic fume hood. The brain was rapidly removed to buffered dissection media containing 100 ml MEM, 1 ml penicillin/streptomycin, 1 ml Tris 100×stock (10 mm final, pH 7.2), sterile filtered and chilled. The hippocampi and cortices were isolated under a dissecting microscope and transported in dissection media to a sterile fume hood. Tissue was positioned on the stage of a MacIllwain tissue chopper with a sterile paint brush, and 400 μm sections were made. Approximately 30 sections per animal were be obtained. Sections were separated by vigorously swirling the petri dish containing the sections in culture media, containing 25% horse serum, 25% Hank's media, 50% minimal essential media, 1 ml penicillin/streptomycin, 0.5 ml L-glutamine. Sections were inspected with a dissecting microscope and damaged tissue removed. The selected sections were manipulated in drops of dissecting media with Pasteur pipettes which had been scored and broken, then fire polished, to produce appropriate diameter bores, and placed on Millipore culture plate inserts set into 35 mm plate containing 1 ml culture media or 6 well plates containing 1.2 ml culture media. Plates containing inserts and media had been pre-equilibrated to 37° C. and 5% CO2. Three to six slices were positioned on each insert. Excess media was drawn off the slice, and the culture placed in a 37° C., 5% CO2 incubator. Cultures were maintained for up to 3 months. Media was changed at 24 hours, and at 3-4 day intervals.
Media was pre-equilibrated in plates at 37° C., 5% CO2. Culture inserts holding 3 rat organotypic brain slices obtained from 8 day old animals and maintained in culture for 2 weeks were transferred to the media containing test solution. […]
After treatment, medium is harvested and assayed for apoE levels using immunoassays such as ELISA or Western blot. Cell lysates prepared from the treated brain slices and analyzed for cell-associated apoE using the same assays.

SMILES | basal apoE levels [1] | basal apoE levels [2] | apoE release ([3]; organotypic hippocampal cultures, 24, 48, 72 hours after treatment, FIG. 6) | inhibition of apoE [3] | inhibition of apoE ([3]; listed as NaSalicylate)
COC(=O)[C@H](CC(C)C)NC(=O)c1ccc(NC[C@@H](N)CS)cc1-c1ccccc1 [GGTI-286] | reduced basal apoE levels | reduced basal apoE levels | inhibitory effect on apoE release | – | –
O=C([O-])c1ccccc1O.[Na+] [sodium salicylate] | – | – | – | time- and dose-dependent inhibition of apoE | dose dependent inhibition of apoE
